# Literature values as cited in publication PMC9230797, “Integration of a Physiologically Based Pharmacokinetic and Pharmacodynamic Model for Tegoprazan and Its Metabolite: Application for Predicting Food Effect and Intragastric pH Alterations” (Pharmaceutics, 2022).
# Read-outs that look alike come from different tables or passages of the source.
# Key:
# [1] = cited from earlier work
# [2] = set-up: method as in PMID 19006606; conditions: cited from earlier work
# [3] = set-up: method as in PMID 28378544; conditions: cited from earlier work
smiles,measurement,setting,value
COCCCOc1ccnc(C[S+]([O-])c2nc3ccccc3[nH]2)c1C (stereo not drawn) [rabeprazole],"PK parameters (Tmax, AUC, half-life, Cmax) after a high-fat meal",[1],tended to fluctuate significantly
COc1ccc2[nH]c([S+]([O-])Cc3ncc(C)c(OC)c3C)nc2n1 (stereo not drawn) [tenatoprazole],plasma half-life,[2],up to 9 h
COc1ccnc(C[S+]([O-])c2nc3ccc(OC(F)F)cc3[nH]2)c1OC (stereo not drawn) [pantoprazole],"PK parameters (Tmax, AUC, half-life, Cmax) after a high-fat meal",[1],tended to fluctuate significantly
COc1ccc2[nH]c([S+]([O-])Cc3ncc(C)c(OC)c3C)nc2c1 (stereo not drawn) [omeprazole],"PK parameters (Tmax, AUC, half-life, Cmax) after a high-fat meal",[1],tended to fluctuate significantly
same,mean AUC0–12 h,"[3]; CYP2C19 EM, multiple administrations",1.715 µg·h/mL
same,mean AUC0–12 h,"[3]; CYP2C19 EM, single administration",0.7135 µg·h/mL
same,mean AUC0–12 h,"[3]; CYP2C19 IM, multiple administrations",2.087 µg·h/mL
same,mean AUC0–12 h,"[3]; CYP2C19 IM, single administration",0.9725 µg·h/mL
same,mean AUC0–12 h,"[3]; CYP2C19 PM, multiple administrations",3.669 µg·h/mL
same,mean AUC0–12 h,"[3]; CYP2C19 PM, single administration",3.652 µg·h/mL
same,AUC0–12 h ratio PM vs EM,[3]; multiple administrations,2.14 fold
same,AUC0–12 h ratio PM vs IM,[3]; multiple administrations,1.76 fold
same,AUC0–12 h ratio PM vs EM,[3]; single administration,5.12 fold
same,AUC0–12 h ratio PM vs IM,[3]; single administration,3.76 fold
CNCc1cc(-c2ccccc2F)n(S(=O)(=O)c2cccnc2)c1 [vonoprazan],effect of food intake on PK parameters,[1],not significantly affected
